Laboratory results published in US20240294508A1, “RIP1 MODULATORS INCLUDING AZETIDINE CYCLIC UREAS, PREPARATIONS, AND USES THEREOF” (SIRONAX LTD., priority 2021, published 2024).

Each compound was assayed on HT-29 cells (assay: HT29 cells 0FBS assay in vitro: TNF-α/SMAC mimetic/zVAD-FMK induced necroptosis, CellTiter-Glo cell viability (RIP1 inhibitory activity)). Settings: Homo sapiens, FBS free medium, TNF-α (10 ng/ml) + SMAC mimetic (6 uM) + zVAD-FMK (10 μM), 20 hours, geometric mean EC50.
Type: cell-based
In short: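 Luminescent ATP read-out (CellTiter-Glo) gave viability of HT-29 cells after 20 h at 37° C in serum-free medium containing compound and a necroptosis cocktail of 10 ng/ml TNF-α, 6 uM SMAC mimetic and 10 μM zVAD-FMK. EC50s are geometric means of 10-point curves run in duplicate.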

| Compound | EC50 |
| --- | --- |
| Cc1ncc(C2CC=NN2C(=O)N2CC(Oc3cc(-c4c(C)c(N)nn4C)ncc3F)C2)s1 (stereo not drawn) [Compound 107, (3-((2-(3-amino-1,4-dimethyl-1H-pyrazol-5-yl)-5-fluoropyridin-4-yl)oxy)azetidin-1-yl)(5-(2-methylthiazol-5-yl)-4,5-dihydro-1H-pyrazol-1-yl) methanone] | 0.0001 to 0.1 µM |
| Cc1ncc([C@@H]2CC=NN2C(=O)N2CC(Oc3cc(-c4c(C)cnn4C)ncc3F)C2)s1 [Compound 108, (S)-(3-((2-(1,4-dimethyl-1H-pyrazol-5-yl)-5-fluoropyridin-4-yl)oxy)azetidin-1-yl)(5-(2-methylthiazol-5-yl)-4,5-dihydro-1H-pyrazol-1-yl)methanone] | 0.0001 to 0.1 µM |
| Cc1ncc(C2CC=NN2C(=O)N2CC(Oc3nc(-c4c(C)cnn4C)ncc3F)C2)s1 (stereo not drawn) [Compound 109, (3-((2-(1,4-dimethyl-1H-pyrazol-5-yl)-5-fluoropyrimidin-4-yl)oxy)azetidin-1-yl)(5-(2-methylthiazol-5-yl)-4,5-dihydro-1H-pyrazol-1-yl)methanone] | 0.0001 to 0.1 µM |
| Cc1c(-c2cc(OC3CN(C(=O)N4N=CCC4c4cc(F)cc(F)c4F)C3)c(F)cn2)nn(C)c1C(N)=O (stereo not drawn) [Compound 110, 3-(5-fluoro-4-((1-(5-(2,3,5-trifluorophenyl)-4,5-dihydro-1H-pyrazole-1-carbonyl)azetidin-3-yl)oxy)pyridin-2-yl)-1,4-dimethyl-1H-pyrazole-5-carboxamide] | 0.0001 to 0.1 µM |
| Cc1c(-c2cc(OC3CN(C(=O)N4N=CC[C@H]4c4cccc(F)c4)C3)c(F)cn2)nn(C)c1C(N)=O [Compound 111, (S)-3-(5-fluoro-4-((1-(5-(3-fluorophenyl)-4,5-dihydro-1H-pyrazole-1-carbonyl)azetidin-3-yl)oxy)pyridin-2-yl)-1,4-dimethyl-1H-pyrazole-5-carb oxamide] | 0.0001 to 0.1 µM |
| Cc1nn(-c2cc(OC3CN(C(=O)N4N=CCC4c4cc(F)cc(F)c4F)C3)c(F)cn2)c(C)c1S(N)(=O)=O (stereo not drawn) [Compound 112, 1-(5-fluoro-4-((1-(5-(2,3,5-trifluorophenyl)-4,5-dihydro-1H-pyrazole-1-carbonyl)azetidin-3-yl)oxy)pyridin-2-yl)-3,5-dimethyl-1H-pyrazole-4-sulfonamide] | 0.0001 to 0.1 µM |
| Cc1nn(-c2cc(OC3CN(C(=O)N4N=CC[C@H]4c4ccccc4)C3)c(F)cn2)c(C)c1S(N)(=O)=O [Compound 113, (S)-1-(5-fluoro-4-((1-(5-phenyl-4,5-dihydro-1H-pyrazole-1-carbonyl)azetidin-3-yl)oxy)pyridin-2-yl)-3,5-dimethyl-1H-pyrazole-4-sulfonamide] | 0.0001 to 0.1 µM |
| Cc1nn(-c2cc(OC3CN(C(=O)N4N=CC[C@H]4c4cccc(F)c4)C3)c(F)cn2)c(C)c1S(N)(=O)=O [Compound 114, (S)-1-(5-fluoro-4-((1-(5-(3-fluorophenyl)-4,5-dihydro-1H-pyrazole-1-carbonyl)azetidin-3-yl)oxy)pyridin-2-yl)-3,5-dimethyl-1H-pyrazole-4-sulfonamide] | 0.0001 to 0.1 µM |
| Cc1c(N)nn(C)c1-c1cc(OC2CN(C(=O)N3N=CCC3c3cc(F)cc(F)c3F)C2)c(F)cn1 (stereo not drawn) [Compound 115, (3-((2-(3-amino-1,4-dimethyl-1H-pyrazol-5-yl)-5-fluoropyridin-4-yl)oxy)azetidin-1-yl)(5-(2,3,5-trifluorophenyl)-4,5-dihydro-1H-pyrazol-1-yl) methanone] | 0.0001 to 0.1 µM |
| Cc1cnn(C)c1-c1cc(OC2CN(C(=O)N3N=CCC3c3cc(F)cc(F)c3F)C2)c(F)cn1 (stereo not drawn) [Compound 116, (3-((2-(1,4-dimethyl-1H-pyrazol-5-yl)-5-fluoropyridin-4-yl)oxy)azetidin-1-yl)(5-(2,3,5-trifluorophenyl)-4,5-dihydro-1H-pyrazol-1-yl)methanone] | 0.0001 to 0.1 µM |
| Cc1nn(-c2cc(OC3CN(C(=O)N4N=CCC4c4cc(F)cc(Cl)c4)C3)c(F)cn2)c(C)c1C(N)=O (stereo not drawn) [Compound 117, 1-(4-((1-(5-(3-chloro-5-fluorophenyl)-4,5-dihydro-1H-pyrazole-1-carbonyl)azetidin-3-yl)oxy)-5-fluoropyridin-2-yl)-3,5-dimethyl-1H-pyrazole-4-carboxamide] | 0.0001 to 0.1 µM |
| Cc1cc(F)cc(C2CC=NN2C(=O)N2CC(Oc3cc(-n4nc(C)c(C(N)=O)c4C)ncc3F)C2)c1 (stereo not drawn) [Compound 118, 1-(5-fluoro-4-((1-(5-(3-fluoro-5-methylphenyl)-4,5-dihydro-1H-pyrazole-1-carbonyl)azetidin-3-yl)oxy)pyridin-2-yl)-3,5-dimethyl-1H-pyrazole-4-carboxamide] | 0.0001 to 0.1 µM |
| Cc1nc(C)c(C2CC=NN2C(=O)N2CC(Oc3cc(-c4c(C)cnn4C)ncc3F)C2)s1 (stereo not drawn) [Compound 119, (3-((2-(1,4-dimethyl-1H-pyrazol-5-yl)-5-fluoropyridin-4-yl)oxy)azetidin-1-yl)(5-(2,4-dimethylthiazol-5-yl)-4,5-dihydro-1H-pyrazol-1-yl)methanone] | 0.1 to 1 µM |
| Cc1nc([C@@H]2CC=NN2C(=O)N2CC(Oc3cc(-c4c(C)cnn4C)ncc3F)C2)cs1 [Compound 120, (S)-(3-((2-(1,4-dimethyl-1H-pyrazol-5-yl)-5-fluoropyridin-4-yl)oxy)azetidin-1-yl)(5-(2-methylthiazol-4-yl)-4,5-dihydro-1H-pyrazol-1-yl)methanone] | 0.0001 to 0.1 µM |
| Cc1nc([C@H]2CC=NN2C(=O)N2CC(Oc3cc(-c4c(C)cnn4C)ncc3F)C2)cs1 [Compound 121, (R)-(3-((2-(1,4-dimethyl-1H-pyrazol-5-yl)-5-fluoropyridin-4-yl)oxy)azetidin-1-yl)(5-(2-methylthiazol-4-yl)-4,5-dihydro-1H-pyrazol-1-yl)methanone] | 1 to 10 µM |
| Cc1nc(C2CC=NN2C(=O)N2CC(Oc3nc(-c4c(C)cnn4C)c(F)cc3F)C2)cs1 (stereo not drawn) [Compound 122, (3-((6-(1,4-dimethyl-1H-pyrazol-5-yl)-3,5-difluoropyridin-2-yl)oxy)azetidin-1-yl)(5-(2-methylthiazol-4-yl)-4,5-dihydro-11H-pyrazol-1-yl)methanone] | 0.0001 to 0.1 µM |
| Cc1ncc(C2CC=NN2C(=O)N2CC(Oc3nc(-c4c(C)cnn4C)c(F)cc3F)C2)s1 (stereo not drawn) [Compound 123, (3-((6-(1,4-dimethyl-1H-pyrazol-5-yl)-3,5-difluoropyridin-2-yl)oxy)azetidin-1-yl)(5-(2-methylthiazol-5-yl)-4,5-dihydro-1H-pyrazol-1-yl)methanone] | 0.0001 to 0.1 µM |
| Cc1nn(-c2cc(OC3CN(C(=O)N4N=CC[C@H]4c4cc(F)cc(F)c4F)C3)c(F)cn2)c(C)c1S(N)(=O)=O [Compound 124, (S)-1-(5-fluoro-4-((1-(5-(2,3,5-trifluorophenyl)-4,5-dihydro-1H-pyrazole-1-carbonyl)azetidin-3-yl)oxy)pyridin-2-yl)-3,5-dimethyl-1H-pyrazole-4-sulfonamide] | 0.0001 to 0.1 µM |
| Cc1nn(-c2cc(OC3CN(C(=O)N4N=CC[C@@H]4c4cc(F)cc(F)c4F)C3)c(F)cn2)c(C)c1S(N)(=O)=O [Compound 125, (R)-1-(5-fluoro-4-((1-(5-(2,3,5-trifluorophenyl)-4,5-dihydro-1H-pyrazole-1-carbonyl)azetidin-3-yl)oxy)pyridin-2-yl)-3,5-dimethyl-1H-pyrazole-4-sulfonamide] | 0.1 to 1 µM |
| Cc1c(-c2cc(OC3CN(C(=O)N4N=CC[C@H]4c4cc(F)cc(F)c4F)C3)c(F)cn2)nn(C)c1C(N)=O [Compound 126, 3-(5-fluoro-4-((1-(5-(2,3,5-trifluorophenyl)-4,5-dihydro-1H-pyrazole-1-carbonyl)azetidin-3-yl)oxy)pyridin-2-yl)-1,4-dimethyl-1H-pyrazole-5-carboxamide] | 0.0001 to 0.1 µM |
| Cc1nc(C2CC=NN2C(=O)N2CC(Oc3cc(-c4c(C)cnn4C)ncc3Cl)C2)cs1 (stereo not drawn) [Compound 127, (3-((5-chloro-2-(1,4-dimethyl-1H-pyrazol-5-yl)pyridin-4-yl)oxy)azetidin-1-yl)(5-(2-methylthiazol-4-yl)-4,5-dihydro-1H-pyrazol-1-yl)methanone] | 1 to 10 µM |
| Cc1nc(C2CC=NN2C(=O)N2CC(Oc3cc(-c4c(C)cnn4C)ncc3F)C2)c(C)s1 (stereo not drawn) [Compound 128, (3-((2-(1,4-dimethyl-1H-pyrazol-5-yl)-5-fluoropyridin-4-yl)oxy)azetidin-1-yl)(5-(2,5-dimethylthiazol-4-yl)-4,5-dihydro-1H-pyrazol-1-yl)methanone] | 0.1 to 1 µM |
| Cc1cnc(C2CC=NN2C(=O)N2CC(Oc3nc(-c4c(C)cnn4C)c(F)cc3F)C2)s1 (stereo not drawn) [Compound 129, (3-((6-(1,4-dimethyl-1H-pyrazol-5-yl)-3,5-difluoropyridin-2-yl)oxy)azetidin-1-yl)(5-(5-methylthiazol-2-yl)-4,5-dihydro-1H-pyrazol-1-yl)methanone] | 0.0001 to 0.1 µM |
| Cc1cc(F)cc(C2CC=NN2C(=O)N2CC(Oc3cc(-c4c(C)cnn4C)ncc3F)C2)c1 (stereo not drawn) [Compound 130, (3-((2-(1,4-dimethyl-1H-pyrazol-5-yl)-5-fluoropyridin-4-yl)oxy)azetidin-1-yl)(5-(3-fluoro-5-methylphenyl)-4,5-dihydro-1H-pyrazol-1-yl)methanone] | 0.0001 to 0.1 µM |
| Cc1nc(C2CC=NN2C(=O)N2CC(Oc3cc(-c4c(C)cnn4C)c(F)cc3F)C2)cs1 (stereo not drawn) [Compound 131, (3-(5-(1,4-dimethyl-1H-pyrazol-5-yl)-2,4-difluorophenoxy)azetidin-1-yl)(5-(2-methylthiazol-4-yl)-4,5-dihydro-1H-pyrazol-1-yl)methanone] | 0.0001 to 0.1 µM |
| Cc1nc(C2CC=NN2C(=O)N2CC(Oc3cc(-c4ccnn4C)c(F)cc3F)C2)cs1 (stereo not drawn) [Compound 132, (3-(2,4-difluoro-5-(1-methyl-1H-pyrazol-5-yl)phenoxy)azetidin-1-yl)(5-(2-methylthiazol-4-yl)-4,5-dihydro-1H-pyrazol-1-yl)methanone] | 0.0001 to 0.1 µM |
| Cc1nn(-c2cc(OC3CN(C(=O)N4N=CC[C@H]4c4cc(F)cc(Cl)c4)C3)c(F)cn2)c(C)c1C(N)=O [Compound 133, (S)-1-(4-((1-(5-(3-chloro-5-fluorophenyl)-4,5-dihydro-1H-pyrazole-1-carbonyl)azetidin-3-yl)oxy)-5-fluoropyridin-2-yl)-3,5-dimethyl-1H-pyrazole-4-carboxamide] | 0.0001 to 0.1 µM |
